Laboratory results from patent publication US10183014B2, “Ocular formulations for drug-delivery and protection of the anterior segment of the eye” (PanOptica, Inc., priority 2014, dated 2019).

Tests used:
EGFR [1] = biological target: T1, EGFR (Homo sapiens, UniProt P00533); test: Mechanism by which menadione enhances EGFR activity (hTCEpi immunoblot); type: cell-based; design: Kinetics of EGFR degradation: dose or concentration left out as unconfirmed
T1 construct: endogenous in cells; host or cells: hTCEpi (immortalized corneal epithelial cells)
Description: […] Cells were then incubated with 8.0 nM (50 ng/ml) EGF for 0-3 hours. The cells were lysed and the lysates were resolved by SDS-PAGE, and immunoblotted for phosphorylated EGFR (pY1068), total EGFR, or α-tubulin.

corneas of C57/Bl mice = test: Corneal wound healing in vivo with a second active agent; settings: 0.3 μM menadione, 48 hours pre-treatment
Description: Determination of the effects of a compound of Formula I or II and/or a second active agent on corneal wound healing was determined in mice. Corneas of C57/Bl mice are wounded and then pre-treated with a compound of Formula I or II, followed by addition of EGF, vitamin K, or nicotinic acid/nicotinamide. Wound size and closure are monitored.
Corneas of 8 week old C57/Bl mice were pre-treated with topical administration of vehicle, 0.3 μM menadione, 10 μM of a compound of Formula I or II, 0.3 μM menadione and 10 μM of a compound of Formula I or II 48 hours before the corneas were wounded (1.5 mm superficial epithelial wound). Wound size was monitored by fluorescein staining and fluorescent photography. Wound closure was monitored over the course of 40 hours.

EGFR [2] = biological target: T1, EGFR; test: EGFR tyrosine phosphorylation assay in hTCEpi cells with a second active agent; type: cell-based; settings: vitamin K 50 μM, nicotinic acid 10 μM or nicotinamide 10 μM, 4 hours pre-treatment, EGF 50 ng/ml
Description: An EGFR tyrosine assay in corneal epithelial cells is run to determine if Vitamin K or nicotinic acid/nicotinamide can overcome inhibition of EGFR and if there is an increase in EGFR activity. […] Cells are harvested cells and immunoblotted for determination of phosphorylated EGFR (tyrosine 1068 and tyrosine 1045) and total EGFR concentration which was used to determine receptor activity (IC50).
The cells were then incubated with EGF (50 ng/ml) for 15 minutes. Cells were harvested and cell lysates were immunoblotted for determination of phosphorylated EGFR (tyrosine 1068 and tyrosine 1045) and total EGFR concentration.

[3] = Particle size distribution by laser diffraction light scattering; type: physicochemical; settings: 5% menadione, HPMC formulation, roller milled; 40° C.
Description: Particle size distribution can be analyzed using laser diffraction light scattering, e.g., with a Horiba LA-950 V2. Generic assumptions are made in setting conditions and the refractive index value. The distributions are volume based. Sample density is adjusted to a generic range of percent transmission on the blue LED light source. A small sample cell (filled with water) can be used rather than the flow through cell, to minimize sample quantity.
Particle size distribution was analyzed using laser diffraction light scattering with a Horiba LA-950 V2. Generic assumptions were made in setting conditions and the refractive index value. The distributions were volume based. Sample density was adjusted to a generic range of percent transmission on the blue LED light source. A small sample cell (filled with water) was used rather than the flow through cell, to minimize sample quantity.

hTCEpi cells = test: Cell migration/proliferation (in vitro wound healing) in hTCEpi cells: compound and second active agent; type: cell-based; settings: 0.3 μM menadione
Description: Determination of cell migration/proliferation in corneal epithelial cells is run to determine cell migration/proliferation in the presence of varying concentrations of a compound of Formula I or II, vitamin K, or nicotinic acid/nicotinamide. Cells are plated with silicone plugs. The cells are then serum starved and pre-treated with varying concentrations of a compound of Formula I or II or a control. The plugs are removed and the cells are treated with 1) EGF, 2) EGF and vitamin K or 3) EGF and nicotinic acid/nicotinamide. Cell migration is quantified from micrographs.
hTCEpi cells were plated with silicone plugs. The cells were then serum starved and pre-treated with varying concentrations of vitamin K3 analog, menadione, for 4 hours and supplemented with the varying concentrations of a compound of Formula I or II for 30 minutes. The plugs were removed. The cells were photographed and then treated with various concentrations of vitamin K, EGF, and/or a compound of Formula I or II. The cells were again photographed and cell migration was quantified from the micrographs. Additional controls run included no compound of Formula I or II and no EGF. All experiments were repeated three times.

[4] = Ocular pharmacokinetics of formulations, Example 20-5; type: in vivo, Dutch Belted rabbits
Description: The study design (Table 19-1) consisted of forty-seven (47) Dutch Belted rabbits, each receiving a 30 μL bilateral topical ocular dose. Various suspension formulations of the present application were evaluated and compared against a cyclodextrin-based eye drops solution (Control Group 1, Table 19-1). Formula II or Compound-I was used in the test suspensions as well as the Eye Drops solution.
(§1) Ocular sampling occurred one hour following the first daily dose on Day 5 for all groups. Whole blood samples using K2EDTA as an anticoagulant were collected from all animals on Day 5, 1 hour post dose. The whole blood was placed on ice until samples were spun in a centrifuge to separate the plasma. Aqueous humor, conjunctiva, cornea, central retina, peripheral retina, central choroid, and peripheral choroid samples were collected following necropsy. Samples were then frozen at −70° C. or lower. For all Groups 1-15, plasma, central retina, central choroid, and cornea samples were assayed. For Group 5 only, samples were analyzed for Vitamin K3.
An analytical method for the analysis of Vitamin K3 was determined in plasma, central retina, central choroid, and cornea samples from Group 5 animals. A calibration curve prepared in control vitreous humor was used to determine the concentration of Vitamin K3. Internal standard (IS) responses were inconsistent for the central choroid and plasma samples. Thus, positive plasma results were likely due to the reduced IS response.

[5] = Ocular pharmacokinetics of formulations, Example 20-3; type: in vivo, Dutch Belted rabbits; settings: 1.0 μM Vit K3 suspension, 30 μL/eye/dose QD for 4 Days, 1 hr post dose on Day 5; for Vitamin K3 concentration in Cornea: LLOQ = 2.91 μM; for Vitamin K3 concentration in Central Choroid: LLOQ = 43.6 μM
Description: The study design (Table 17-1) consisted of thirty-nine (39) Dutch Belted rabbits, each receiving a 30 μL bilateral topical ocular dose. Various suspension formulations of the present application were evaluated and compared against two control formulations: a) a cyclodextrin-based eye drops solution (Control Group 13, Table 17-1), and b) a pilot suspension formulation used in previous rabbit pharmacokinetic studies, (Group 10, Table 17-1). Formula II or Compound-I was used in the test suspensions, whereas the Eye Drops solution formulation is derived with the Compound-I.
as §1, with “1-13,” for “1-15,”, “assayed.” for “assayed. For Group 5 only, samples were analyzed for Vitamin K3.”
Additionally, Vitamin K3 concentrations were determined in plasma, central retina, central choroid, and cornea samples for animals from Groups 8 and 9. A calibration curve prepared in control matrix was used to determine the concentration of Vitamin K3.

[6] = Group 8: Formula II 4 mg/mL, HPMC
[7] = Group 9: Formula II 4 mg/mL, Pluronic

T1 sequence (P00533 25-1210): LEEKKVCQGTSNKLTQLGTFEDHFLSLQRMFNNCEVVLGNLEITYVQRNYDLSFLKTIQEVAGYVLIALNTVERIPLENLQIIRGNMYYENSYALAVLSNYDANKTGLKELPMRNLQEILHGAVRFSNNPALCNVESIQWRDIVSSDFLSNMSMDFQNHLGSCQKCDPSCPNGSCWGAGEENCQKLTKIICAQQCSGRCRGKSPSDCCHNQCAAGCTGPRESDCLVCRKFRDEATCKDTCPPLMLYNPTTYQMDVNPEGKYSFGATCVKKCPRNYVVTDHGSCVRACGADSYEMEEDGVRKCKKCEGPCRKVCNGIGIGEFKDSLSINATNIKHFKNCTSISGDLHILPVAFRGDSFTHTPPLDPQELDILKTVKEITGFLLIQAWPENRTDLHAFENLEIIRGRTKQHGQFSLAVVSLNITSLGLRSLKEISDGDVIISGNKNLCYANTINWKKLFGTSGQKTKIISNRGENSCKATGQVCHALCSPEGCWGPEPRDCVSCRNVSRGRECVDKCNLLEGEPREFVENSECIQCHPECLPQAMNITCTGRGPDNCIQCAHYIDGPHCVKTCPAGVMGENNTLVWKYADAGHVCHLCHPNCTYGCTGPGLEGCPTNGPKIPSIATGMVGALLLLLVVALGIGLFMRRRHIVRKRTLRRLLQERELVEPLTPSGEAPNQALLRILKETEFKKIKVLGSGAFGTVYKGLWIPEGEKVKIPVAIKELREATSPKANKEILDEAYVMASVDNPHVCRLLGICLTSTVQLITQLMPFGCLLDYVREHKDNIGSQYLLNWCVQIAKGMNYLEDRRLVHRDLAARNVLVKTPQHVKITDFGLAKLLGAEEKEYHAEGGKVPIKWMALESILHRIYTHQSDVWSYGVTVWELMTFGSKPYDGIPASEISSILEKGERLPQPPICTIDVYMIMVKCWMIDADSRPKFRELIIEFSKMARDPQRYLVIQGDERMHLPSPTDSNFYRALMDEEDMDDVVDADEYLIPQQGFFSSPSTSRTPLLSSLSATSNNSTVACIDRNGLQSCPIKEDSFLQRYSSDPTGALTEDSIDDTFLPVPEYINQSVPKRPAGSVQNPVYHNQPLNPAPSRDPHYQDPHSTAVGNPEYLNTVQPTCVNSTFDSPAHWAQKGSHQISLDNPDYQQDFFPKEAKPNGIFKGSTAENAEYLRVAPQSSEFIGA

With CC1=CC(=O)c2ccccc2C1=O [menadione] the “Basal EGFR phosphorylation and EGFR dephosphorylation” value (EGFR [1]; 0.3 or 3.0 μM, 4 hours, 50 ng/ml EGF 0-3 hours) was “did not change”, the “Kinetics of EGFR degradation” value (EGFR [1]; menadione) was “slowed the kinetics of EGFR degradation” and the “Effect on corneal epithelial wound healing after pre-treatment with a compound of Formula I or II (10 μM)” value (corneas of C57/Bl mice) was “reversed the effects”. For the same molecule, the “Effect on Formula I or II compound-mediated EGFR inhibition” value (EGFR [2]) was “overcome”, the “Effect on Formula I or II compound-mediated EGFR inhibition” value (EGFR [2]; listed as vitamin K3) was “most effectively attenuated” and the Stability of suspension [3] was “short term stability”. The “Effect on inhibition of in vitro wound healing by a compound of Formula I or II” value (hTCEpi cells) was “reversed”, the “Vitamin K3 in central retina and cornea samples” value ([4]; Group 5) was “no quantitative results” and the “Vitamin K3 Cornea concentration” value ([4]; Group 5: Compound-I 4 mg/mL suspension with Vitamin K3 1 μM, QD for 4 days, 1 hr post dose on Day 5, LLOQ = 0.145 μM) was “<LLOQ”. For the same molecule, the “Vitamin K3 Central Retina concentration” value ([4]; Group 5: Compound-I 4 mg/mL suspension with Vitamin K3 1 μM, QD for 4 days, 1 hr post dose on Day 5, LLOQ = 0.581 μM) was “<LLOQ”, the “Vitamin K3 concentration in Cornea” value [5, 6] was “<LLOQ” and the “Vitamin K3 concentration in Central Choroid” value [5, 6] was “<LLOQ”. The “Vitamin K3 concentration in Plasma” value ([5]; Group 8: Formula II 4 mg/mL, HPMC, average n = 3, LLOQ = 0.291 μM) was “<LLOQ”, the “Vitamin K3 concentration in Cornea” value [5, 7] was “<LLOQ” and the “Vitamin K3 concentration in Central Retina” value ([5]; Group 9: Formula II 4 mg/mL, Pluronic, LLOQ = 11.6 μM) was “<LLOQ”. For the same molecule, the “Vitamin K3 concentration in Central Choroid” value [5, 7] was “<LLOQ”.
